Measurements as given in patent US12643894B2, “BCL-2 family proteins modulating compounds for cancer treatment” (CENTRE REGIONAL DE LUTTE CONTRE LE CANCER FRANCOIS BACLESSE, priority 2020, dated 2026).

How the values were obtained:
Mcl-1 = molecular target: T1, Mcl-1 (Homo sapiens, UniProt Q07820); assay: Target expression analysis by western blot (Mcl-1) in IGROV1-R10 cells; type: cell-based; settings: 24 h exposure, 1 μM
T1 construct: endogenous in cells; host or cells: IGROV1-R10 (human platinum-resistant ovarian carcinoma)
T1 sequence (Q07820 whole entry): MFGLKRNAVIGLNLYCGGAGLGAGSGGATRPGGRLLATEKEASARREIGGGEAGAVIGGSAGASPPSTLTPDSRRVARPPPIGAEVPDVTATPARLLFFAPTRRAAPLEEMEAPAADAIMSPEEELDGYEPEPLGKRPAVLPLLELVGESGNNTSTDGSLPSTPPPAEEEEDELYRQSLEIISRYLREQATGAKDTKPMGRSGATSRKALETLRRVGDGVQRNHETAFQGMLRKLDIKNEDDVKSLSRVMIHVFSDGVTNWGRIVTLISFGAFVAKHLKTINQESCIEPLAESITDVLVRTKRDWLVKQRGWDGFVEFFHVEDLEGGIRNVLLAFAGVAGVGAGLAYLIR
Procedure: (§1) Human platinum resistant ovarian carcinoma cells IGROV1-R10 were used. This cell line was grown in RPMI 1640 medium supplemented with 2 mM Glutamax™, 25 mM HEPES, 10% fetal calf serum, and 33 mM sodium bicarbonate (Fisher Scientific, Illkirch, France). Cells were maintained at 37° C. in a humid atmosphere with 5% C02. Cells were seeded in 25 cm^2 flasks. After 24 h, exponentially growing cells were exposed to 1 μM of compounds for 24 h. CRBN-PBM1-001 targeting both Mcl-1 and CRBN and Pyridoclax were designed and synthetized by the CERMN (Centre d'Etudes et de Recherche sur le Médicament de Normandie) and dissolved in DiMethyl SulfOxide (DMSO, Sigma-Aldrich).
(§2) Cells were rinsed with ice-cold PBS, suspended in a lysis buffer [RIPA: NaCl 150 mM, Tris (pH 8) 50 mM, Triton X100 1%, PMSF 4 mM, EDTA 5 mM, NaF 10 mM, NaPPi 10 mM, Na3VO4 1 mM, aprotinin 0.5 μL/mL and 4.6 mL ultra-pure water] and incubated on ice for 30 min. Lysates were collected after centrifugation (13200 g, 10 min, 4° C.) and protein concentrations were determined using the Bradford assay (Bio-Rad, Hercules, USA). Equal amounts of protein (25 μg) were separated by SDS-PAGE on a 4-15% gradient polyacrylamide Mini-PROTEAN®TGX™ precast gel (Bio-Rad). […] The relative intensities of the protein bands were quantified using the ImageJ software, and the values were normalized to the intensities of the respective Actin signals. […]

Bcl-xL = molecular target: T2, Bcl-xL (Homo sapiens, UniProt Q07817); assay: Target expression analysis by western blot (Bcl-xL) in IGROV1-R10 cells; type: cell-based; settings: 24 h exposure, 1 μM
T2 construct: endogenous in cells; host or cells: IGROV1-R10 (human platinum-resistant ovarian carcinoma)
T2 sequence (Q07817 whole entry): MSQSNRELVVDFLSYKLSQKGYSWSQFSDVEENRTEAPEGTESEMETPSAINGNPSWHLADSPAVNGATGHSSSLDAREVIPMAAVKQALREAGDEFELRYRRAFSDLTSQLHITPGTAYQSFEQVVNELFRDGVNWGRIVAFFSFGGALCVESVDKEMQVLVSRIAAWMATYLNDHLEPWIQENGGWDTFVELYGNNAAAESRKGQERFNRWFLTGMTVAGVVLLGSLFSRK
Procedure: as §1, §2

| Structure (SMILES) | Mcl-1 expression (modulation) (Mcl-1; single agent, western blot) | decrease of Mcl-1 expression (Mcl-1; densitometry analysis of western blot normalized to Actin) | Bcl-xL expression (Bcl-xL) |
| --- | --- | --- | --- |
| Cc1cc(-c2ncc(-c3cccnc3)cc2/C=C/c2ccccc2)cnc1-c1cccnc1 [Pyridoclax, reference compound] | did not modulate |  |  |
| Cc1cc(-c2ncc(C#CCOCCOCCNc3cccc4c3C(=O)N(C3CCC(=O)NC3=O)C4=O)cc2/C=C/c2ccccc2)cnc1-c1cccnc1 (stereo not drawn) [CRBN-PBM1-001] |  | 52% | not affected |
